Laboratory results as given in publication PMC11729640, “Synthesis and evaluation of 6-arylaminobenzamides as positron emission tomography imaging ligands for the sphingosine-1-phosphate-5 receptor” (RSC Medicinal Chemistry, 2025).

Tests used:
[1] = test system: rat brain; assay: Pilot PET in vivo imaging in naïve rats; design: species or system Sprague–Dawley rats; conditions: intravenous bolus, n = 3
Description: Following successful preparation of [^18F]TEFM78, PET imaging with rodents was next conducted. On intravenous bolus administration of [^18F]TEFM78, there was rapid uptake of the radiotracer into the rat brain (Fig. 3a), followed by clearance within 20 minutes of the scan starting (Fig. 3b). […] The biodistribution and kinetics of the spinal cord were different from the brain with a lower peak radiotracer uptake but slower clearance (Fig. 3b). […] Typically, low free fraction of compounds can limit brain penetration. However, as shown in the PET images presented in Fig. 3, despite low free fraction, brain penetration of [^18F]TEFM78 is successfully achieved. […]
Fig. 3 Brain and spinal cord kinetics of [^18F]TEFM78 in naïve rats. […] Data expressed as SUV and presented as mean ± SEM, n = 3.
All animal procedures were performed in accordance with the guidelines for care and use of laboratory animals of Edinburgh University and experiments were approved by the Home Office under the Animals (Scientific Procedures) Act 1986, UK. […] Once the PET scans were reconstructed, data was analysed using PMOD image analysis software (PMOD Technologies LLC, Zürich, Switzerland). […] Time activity curves (TACs) were created for each region and PET data expressed as standard uptake value (SUV), calculated as radioactive concentration in the VOI divided by the injected dose and animal's weight.

[2] = Stability of radiotracer by radio-HPLC and radio-TLC; format: physicochemical
Excerpt: On identification of TEFM78 as the lead compound, a synthetic route to access a suitable precursor for late stage radiofluorination was developed (Scheme 3). Our approach focused on the synthesis of a 6-arylaminobenzamide that could undergo late-stage functionalisation at the 4′-position for subsequent radiofluorination. Nucleophilic aromatic substitution of 9b with 2,6-dimethylaniline (18), followed by Ullmann coupling and amidation gave benzamide 21 in 81% yield over the three steps. Activation of the electron-rich aniline ring was achieved using silver(I) triflimide-catalysed iodination.[17] Following optimisation (solvent and reaction time), this gave 22 in 54% yield. Subsequent Pd(0)-catalysed stannylation gave trimethyltin precursor 23 in 84% yield. The radiosynthesis of [^18F]TEFM78 was then performed using a TRACERlab FXFN automated synthesiser. No-carrier-added [^18F]fluoride from the cyclotron was trapped on a carbonate-pre-conditioned quaternary methyl ammonium (QMA) cartridge, eluted into the reaction vessel and then azeotropically dried. […]
Analytical HPLC was carried out on a Thermo Dionex Ulimate system 3000 equipped with a Berthold FlowStar LB 513 radio flow detector and a DAD-3000 UV detector. […] The nonradioactive standards were detected using a UV wavelength of 254 nm.

COc1c(C)ccc(Nc2c(C)cc([18F])cc2C)c1C(N)=O [[^18F]TEFM78]
peak standard uptake value (SUV) in the brain [1]: 3 g/mL | radiochemical purity (RCP) ten hours after production (stability) [2]: > 99%
